Experiment: molar heat capacity at constant pressure
Details: 101.33 kPa, Crystal, DSC

O=C(O)c1ccccc1 [benzoic acid]
Details	molar heat capacity at constant pressure [J/K/mol]
208.72 K	104.86
210.22 K	105.69
211.72 K	106.52
213.72 K	107.61
216.22 K	108.96
218.22 K	110.02
221.72 K	111.86
224.22 K	113.15
226.72 K	114.43
227.22 K	114.68
230.22 K	116.19
233.22 K	117.68
236.22 K	119.14
239.22 K	120.59
243.22 K	122.5
247.22 K	124.38
252.22 K	126.69
256.72 K	128.74
260.72 K	130.54
264.22 K	132.1
268.72 K	134.09
271.22 K	135.19
273.22 K	136.06
276.72 K	137.59
279.72 K	138.9
283.22 K	140.41
287.22 K	142.15
291.72 K	144.1
292.22 K	144.31
293.22 K	144.75
294.22 K	145.18
295.22 K	145.61
297.72 K	146.7
298.15 K	146.89
298.22 K	146.92
298.72 K	147.13
301.72 K	148.44
303.72 K	149.32
305.72 K	150.19
307.72 K	151.07
310.22 K	152.18
314.22 K	153.96
318.22 K	155.75
321.22 K	157.11

CSCCC(N)C(=O)O (racemic) [DL-2-amino-4-(methylthio)butanoic acid]
Details	molar heat capacity at constant pressure [J/K/mol]
208.72 K	145.39
210.22 K	145.59
211.72 K	146.57
213.72 K	147.97
216.22 K	150.38
218.22 K	152.14
221.72 K	155.91
224.22 K	157.49
226.72 K	159.11
227.22 K	159.42
230.22 K	161.3
233.22 K	162.93
236.22 K	164.63
239.22 K	166.6
243.22 K	168.79
247.22 K	170.83
252.22 K	173.41
256.72 K	176.16
260.72 K	178.94
264.22 K	181.37
268.72 K	184.35
271.22 K	184.84
273.22 K	187.3
276.72 K	190.45
279.72 K	192.56
283.22 K	194.93
287.22 K	196.84
291.72 K	199.53
292.22 K	199.85
293.22 K	200.43
294.22 K	201.59
295.22 K	202.47
297.72 K	205.07
298.15 K	205.16
298.22 K	205.65
298.72 K	205.99
301.72 K	208.47
303.72 K	209.85
305.72 K	211.52
307.72 K	212.85
310.22 K	214.89
314.22 K	218.21
318.22 K	222.26
321.22 K	225.76

— the NIST ThermoML archive (doi:10.1016/j.jct.2019.04.006)
